Measurements taken from patent US4256746A, “Dechloromaytansinoids, their pharmaceutical compositions and method of use” (priority 1978, dated 1981).
Converted amounts (≈) assume the structure as drawn. Like-named read-outs stand apart in the source and are kept apart here.

What was measured:
leukemia P-388 = assay: Antitumor activity, life span prolongation of mice transplanted intraperitoneally with leukemia P-388 tumor cells; format: in vivo; details: i.p. once daily for 9 consecutive days
Protocol: (§1) Therapeutic tests were carried out in mice according to NCI-protocols 1,200 and 1,300, Cancer Chemother, Reports, Part 3, 1972, Vol. 3, No. 2, in which leukemia P-388 and melanoma B-16 tumor cells had been intraperitoneally transplanted, compound (I) being administered intraperitoneally once daily for 9 consecutive days.

melanoma B-16 = assay: Antitumor activity, life span prolongation of mice transplanted intraperitoneally with melanoma B-16 tumor cells; format: in vivo; details: i.p. once daily for 9 consecutive days
Protocol: as §1

Tetrahymena pyriformis W = assay: Antiprotozoal activity, growth inhibition by the serial dilution method; format: cell-based
Protocol: Antiprotozoal activity of compound (I) was assayed with Tetrahymena pyriformis W as the test organism and a medium composed of 20 g tryptose-peptone (Difco Co.), 1 g yeast extract, 2 g glucose, 1000 ml distilled water, 10 ml 1 M phosphate buffer (pH 7.0) as the assay medium. The microorganism was incubated at 28° C. for 44 to 48 hours and the growth inhibitory activity of compound (I) was assayed by the serial dilution method.

[1] = Tetrahymena pyriformis, pH 7, read-out: Antiprotozoal activity MIC (minimal inhibitory concentration)

| SMILES | Antitumor activities P-388 (T/C %) (leukemia P-388; 50 μg/kg) | Antitumor activities P-388 (T/C %) (leukemia P-388; 100 μg/kg) | Antitumor activities P-388 (T/C %) (leukemia P-388; 200 μg/kg) | Antitumor activities P-388 (T/C %) (leukemia P-388; 400 μg/kg) | Antitumor activities B-16 (T/C %) (melanoma B-16; 100 μg/kg) | Antitumor activities B-16 (T/C %) (melanoma B-16; 200 μg/kg) | Antitumor activities B-16 (T/C %) (melanoma B-16; 400 μg/kg) | Antitumor activities B-16 (T/C %) (melanoma B-16; 800 μg/kg) | MIC (Tetrahymena pyriformis W; [1]) [µg/mL] | MIC (Tetrahymena pyriformis W; Tetrahymena pyriformis W, 28° C., 44 to 48 hours, serial dilution method, pH 7.0, read-out: Antiprotozoal activity MIC (minimal inhibitory concentration)) [µg/mL] |
| --- | --- | --- | --- | --- | --- | --- | --- | --- | --- | --- |
| COc1cc2cc(c1)N(C)C(=O)CC(OC(=O)[C@H](C)N(C)C(C)=O)C1(C)OC1C(C)C1CC(O)(NC(=O)O1)C(OC)C=CC=C(C)C2 (stereo partly shown) [Dechloromaytansine, dechloromaytansine] | 158 | 165 | 175 | 189 | 171 | 152 | 179 | 190 |  |  |
| COc1cc2cc(c1)N(C)C(=O)CC(OC(=O)CCl)C1(C)OC1C(C)C1CC(O)(NC(=O)O1)C(OC)C=CC=C(C)C2 (stereo not shown) [Dechloromaytansinol 3-chloroacetate, dechloromaytansinol 3-chloroacetate] |  |  |  |  |  |  |  |  | ≥ 4 |  |
| COc1cc2cc(c1)N(C)C(=O)CC(OC(=O)C(C)C)C1(C)OC1C(C)C1CC(O)(NC(=O)O1)C(OC)C=CC=C(C)C2 (stereo not shown) [Dechloromaytansinol 3-isobutyrate, dechloromaytansinol 3-isobutyrate] | 168 | 189 | 193 | 224 | 150 | 152 | 174 | 214 |  |  |
| COc1cc2cc(c1)N(C)C(=O)CC(OC(=O)Cc1ccccc1)C1(C)OC1C(C)C1CC(O)(NC(=O)O1)C(OC)C=CC=C(C)C2 (stereo not shown) [Dechloromaytansinol 3-phenylacetate, dechloromaytansinol 3-phenylacetate] |  |  |  |  |  |  |  |  |  | 2 (≈ 3.08 µM) |
| COc1cc2cc(c1)N(C)C(=O)CC(OC(=O)C1CCCCC1)C1(C)OC1C(C)C1CC(O)(NC(=O)O1)C(OC)C=CC=C(C)C2 (stereo not shown) [dechloromaytansinol 3-cyclohexanecarboxylate] |  |  |  |  |  |  |  |  | 4 (≈ 6.24 µM) |  |
